Measurements reported in US20070128217A1 (priority 2003, published 2007).

How the values were obtained:
[1] = test system: control sera (pooled serum of ten healthy LUMC hospital workers; commercial negative donor pooled serum from the Dutch bloodbank); assay type: binding, human; parameters: Binding of Control serum LUMC to linear peptides / Binding of Control serum Blood-bank to linear peptides / Binding of Control serum LUMC to looped peptides / Binding of Control Serum Blood-Bank to Looped peptides / Binding of Control serum LUMC to linear peptides of the protein M of SARS-CoV Urbani / Binding of Control serum Blood-bank to linear peptides of the protein M of SARS-CoV Urbani / Binding of Control serum LUMC to looped peptides of the protein M of SARS-CoV Urbani / Binding of Control Serum Blood-Bank to Looped peptides of the protein M of SARS-CoV Urbani: unit not given here
[2] = test system: rabbit serum obtained by immunizing a rabbit with the SARS-CoV strain Frankfurt 1; assay type: binding; parameters: Binding of a rabbit serum to linear peptides / Binding of a rabbit serum to looped peptides / Rabbit serum linear peptides / Rabbit serum looped peptides / Binding of a rabbit serum to linear peptides of protein N of SARS-CoV Urbani (Rabbit serum linear peptides) / Binding of a rabbit serum to looped/cyclic peptides of protein N of SARS-CoV Urbani (Rabbit serum looped peptides): unit not given here
[3] = test system: antibodies in sera from SARS patients (sera 1a, 1b, 2, 6, 37, 62, London, SARS-yellow, SARS-green); assay type: binding, human; parameters: Binding of serum 6 to linear peptides of protein X1 of SARS-CoV Urbani / Binding of serum 37 to linear peptides of protein X1 of SARS-CoV Urbani / Binding of serum 6 to looped/cyclic peptide (PEPSCAN-ELISA) / Binding of serum 37 to looped/cyclic peptide (PEPSCAN-ELISA) / Binding of serum 37 to looped/cyclic peptides of protein X1 of SARS-CoV Urbani / Binding of serum 6 to linear peptides of protein X2 / Binding of serum 37 to linear peptides of protein X2 / Binding of serum 37 to looped/cyclic peptides of protein X2 of SARS-CoV Urbani / Binding of serum 6 to linear peptides of protein M of SARS-CoV Urbani / Binding of serum 37 to linear peptides of protein M of SARS-CoV Urbani / Binding of serum 6 to looped/cyclic peptides of protein M of SARS-CoV Urbani / Binding of serum 37 to looped/cyclic peptides of protein M of SARS-CoV Urbani / Binding of serum 6 to linear peptides of protein X3 of SARS-CoV Urbani / Binding of serum 37 to linear peptides of protein X3 of SARS-CoV Urbani / Binding of serum 37 to looped/cyclic peptides of protein X3 of SARS-CoV Urbani / Binding of serum 6 to linear peptides of protein X4 of SARS-CoV Urbani / Binding of serum 37 to linear peptides of protein X4 of SARS-CoV Urbani / Binding of serum 37 to looped/cyclic peptides of protein X4 of SARS-CoV Urbani / Binding of serum 6 to linear peptides of protein X5 of SARS-CoV Urbani / Binding of serum 37 to linear peptides of protein X5 of SARS-CoV Urbani / Binding of serum 37 to looped/cyclic peptides of protein X5 of SARS-CoV Urbani / Binding of serum 6 to linear peptides of protein N of SARS-CoV Urbani / Binding of serum 37 to linear peptides of protein N of SARS-CoV Urbani / Binding of serum 6 to linear peptide (PEPSCAN-ELISA) / Binding of serum 1a to looped/cyclic peptides of protein N of SARS-CoV Urbani / Binding of serum 1b to looped/cyclic peptides of protein N of SARS-CoV Urbani / Binding of serum 2 to looped/cyclic peptides of protein N of SARS-CoV Urbani / Binding of serum 6 to looped/cyclic peptides of protein N of SARS-CoV Urbani / Binding of serum 37 to looped/cyclic peptides of protein N of SARS-CoV Urbani / Binding of serum 62 to looped/cyclic peptides of protein N of SARS-CoV Urbani / Binding of serum London to looped/cyclic peptides of protein N of SARS-CoV Urbani / Binding of serum SARS-green to looped/cyclic peptides of protein N of SARS-CoV Urbani: unit not given here

PETNILLNVPLRGTI
Binding of Control Serum Blood-Bank to Looped peptides of the protein M of SARS-CoV Urbani [1]: 0.8 | Binding of Control serum Blood-bank to linear peptides of the protein M of SARS-CoV Urbani [1]: 0.8 | Binding of Control serum LUMC to linear peptides of the protein M of SARS-CoV Urbani [1]: 0.8 | Binding of Control serum LUMC to looped peptides of the protein M of SARS-CoV Urbani [1]: 0.7 | Rabbit serum linear peptides [2]: 0.1 | Rabbit serum looped peptides [2]: 0.3 | Binding of serum 1a to linear peptides of protein M of SARS-CoV Urbani [3]: 0.8 | Binding of serum 1a to looped/cyclic peptides of protein M of SARS-CoV Urbani [3]: 0.6 | Binding of serum 1b to linear peptides of protein M of SARS-CoV Urbani [3]: 0.6 | Binding of serum 1b to looped/cyclic peptides of protein M of SARS-CoV Urbani [3]: 0.6 | Binding of serum 2 to linear peptides of protein M of SARS-CoV Urbani [3]: 0.7 | Binding of serum 2 to looped/cyclic peptides of protein M of SARS-CoV Urbani [3]: 0.7 | Binding of serum 6 to linear peptides of protein M of SARS-CoV Urbani [3]: 0.4 | Binding of serum 6 to looped/cyclic peptides of protein M of SARS-CoV Urbani [3]: 0.9 | Binding of serum 37 to linear peptides of protein M of SARS-CoV Urbani [3]: 0.9 | Binding of serum 37 to looped/cyclic peptides of protein M of SARS-CoV Urbani [3]: 0.8 | Binding of serum 62 to linear peptides of protein M of SARS-CoV Urbani [3]: 0.5 | Binding of serum 62 to looped/cyclic peptides of protein M of SARS-CoV Urbani [3]: 0.8 | Binding of serum London to linear peptides of protein M of SARS-CoV Urbani [3]: 0.4 | Binding of serum London to looped/cyclic peptides of protein M of SARS-CoV Urbani [3]: 0.3 | Binding of serum SARS-green to linear peptides of protein M of SARS-CoV Urbani [3]: 0.5 | Binding of serum SARS-green to looped/cyclic peptides of protein M of SARS-CoV Urbani [3]: 0.0 | Binding of serum SARS-yellow to linear peptides of protein M of SARS-CoV Urbani [3]: 0.3 | Binding of serum SARS-yellow to looped/cyclic peptides of protein M of SARS-CoV Urbani [3]: 0.6

PFGWLVIGVAFLAVF
Binding of Control Serum Blood-Bank to Looped peptides [1]: 0.5 | Binding of Control serum Blood-bank to linear peptides [1]: 0.5 | Binding of Control serum LUMC to linear peptides [1]: 0.5 | Binding of Control serum LUMC to looped peptides [1]: 0.5 | Binding of a rabbit serum to linear peptides [2]: 1.1 | Binding of a rabbit serum to looped peptides [2]: 0.5 | Binding of serum 1a to linear peptides of protein X1 of SARS-CoV Urbani [3]: 0.7 | Binding of serum 1a to looped/cyclic peptide (PEPSCAN-ELISA) [3]: 0.5 | Binding of serum 1b to linear peptides of protein X1 of SARS-CoV Urbani [3]: 0.5 | Binding of serum 1b to looped/cyclic peptide (PEPSCAN-ELISA) [3]: 0.4 | Binding of serum 2 to linear peptides of protein X1 of SARS-CoV Urbani [3]: 0.5 | Binding of serum 2 to looped/cyclic peptide (PEPSCAN-ELISA) [3]: 0.5 | Binding of serum 6 to linear peptides of protein X1 of SARS-CoV Urbani [3]: 0.4 | Binding of serum 6 to looped/cyclic peptide (PEPSCAN-ELISA) [3]: 0.2 | Binding of serum 37 to linear peptides of protein X1 of SARS-CoV Urbani [3]: 0.7 | Binding of serum 37 to looped/cyclic peptide (PEPSCAN-ELISA) [3]: 0.5 | Binding of serum 62 to linear peptides of protein X1 of SARS-CoV Urbani [3]: 0.6 | Binding of serum 62 to looped/cyclic peptide (PEPSCAN-ELISA) [3]: 0.5 | Binding of serum London to linear peptides of protein X1 of SARS-CoV Urbani [3]: 0.3 | Binding of serum London to looped/cyclic peptide (PEPSCAN-ELISA) [3]: 0.2 | Binding of serum SARS-green to linear peptides of protein X1 of SARS-CoV Urbani [3]: 0.3 | Binding of serum SARS-green to looped/cyclic peptide (PEPSCAN-ELISA) [3]: 0.4 | Binding of serum SARS-yellow to linear peptides of protein X1 of SARS-CoV Urbani [3]: 0.7 | Binding of serum SARS-yellow to looped/cyclic peptide (PEPSCAN-ELISA) [3]: 0.5

PKEITVATSRTLSYY
Binding of Control Serum Blood-Bank to Looped peptides of the protein M of SARS-CoV Urbani [1]: 0.6 | Binding of Control serum Blood-bank to linear peptides of the protein M of SARS-CoV Urbani [1]: 0.5 | Binding of Control serum LUMC to linear peptides of the protein M of SARS-CoV Urbani [1]: 0.3 | Binding of Control serum LUMC to looped peptides of the protein M of SARS-CoV Urbani [1]: 0.6 | Rabbit serum linear peptides [2]: 0.5 | Rabbit serum looped peptides [2]: 0.2 | Binding of serum 1a to linear peptides of protein M of SARS-CoV Urbani [3]: 0.6 | Binding of serum 1a to looped/cyclic peptides of protein M of SARS-CoV Urbani [3]: 0.6 | Binding of serum 1b to linear peptides of protein M of SARS-CoV Urbani [3]: 0.4 | Binding of serum 1b to looped/cyclic peptides of protein M of SARS-CoV Urbani [3]: 0.6 | Binding of serum 2 to linear peptides of protein M of SARS-CoV Urbani [3]: 0.5 | Binding of serum 2 to looped/cyclic peptides of protein M of SARS-CoV Urbani [3]: 0.6 | Binding of serum 6 to linear peptides of protein M of SARS-CoV Urbani [3]: 0.2 | Binding of serum 6 to looped/cyclic peptides of protein M of SARS-CoV Urbani [3]: 0.7 | Binding of serum 37 to linear peptides of protein M of SARS-CoV Urbani [3]: 0.8 | Binding of serum 37 to looped/cyclic peptides of protein M of SARS-CoV Urbani [3]: 0.6 | Binding of serum 62 to linear peptides of protein M of SARS-CoV Urbani [3]: 0.7 | Binding of serum 62 to looped/cyclic peptides of protein M of SARS-CoV Urbani [3]: 0.6 | Binding of serum London to linear peptides of protein M of SARS-CoV Urbani [3]: 0.3 | Binding of serum London to looped/cyclic peptides of protein M of SARS-CoV Urbani [3]: 0.2 | Binding of serum SARS-green to linear peptides of protein M of SARS-CoV Urbani [3]: 0.1 | Binding of serum SARS-green to looped/cyclic peptides of protein M of SARS-CoV Urbani [3]: 0.4 | Binding of serum SARS-yellow to linear peptides of protein M of SARS-CoV Urbani [3]: 0.1 | Binding of serum SARS-yellow to looped/cyclic peptides of protein M of SARS-CoV Urbani [3]: 0.4
